The values that follow come from paper PMC10287669, “[1,2,4]triazolo[3,4-b][1,3,4]thiadiazole derivatives as new therapeutic candidates against urease positive microorganisms: design, synthesis, pharmacological evaluations, and in silico studies” (Scientific Reports, 2023).

Usually MIC stands for the lowest concentration found to suppress growth. A word on the Ki: it is the dissociation constant of the complex between target and ligand, obtained from inhibition or displacement. A low value points to a stronger hold on the target. As a reminder, the melting point is the temperature, or range, at which the solid turns liquid.

Converted amounts (≈) assume the structure as drawn. Like-named read-outs stand apart in the source and are kept apart here. Bounds are passed on as bounds.

Series [1] has as its system urease. Particulars: cited from earlier work.
For another series, the system named is P. mirabilis. Description: Anti-ureolytic activity, colorimetric urea broth microdilution. The class given is cell-based, Proteus mirabilis. As to conditions: Proteus mirabilis, read after 24 h, means ± SD of 3 independent experiments, read-out: urease inhibitory activity IC50 (µg/mL) ± SD. As for the experimental part: (§1) The colorimetric microdilution technique using urea broth media (Merck) was used to examine the ureolytic activity of C. neoformans (H99), and clinical isolate of P. mirabilis treated with tested substances (supplemented with glucose; pH = 6 for C. neoformans). Compounds in the concentration range of 1 to 512 μg/mL were exposed to ureolytic microorganisms, and the color of the medium was evaluated visually and spectroscopically at 560 nm after three days for C. neoformans and 24 h for P. mirabilis. The positive control, which included ureolytic bacteria but no drugs, changed color from yellow to dark pink or magenta. This shifts, allowing the determination of the inhibitory activity of compounds against the urease activity of organisms even without a microliter plate reader[45],[46].
On the technique in general: In broth dilution the organism is exposed to a series of concentrations in liquid medium.

Another series deals with C. neoformans (H99). The description is as above. The class given is cell-based, Cryptococcus neoformans. As to conditions: read after three days, means ± SD of 3 independent experiments; for IC50: Cryptococcus neoformans, 72 h. The procedure:
as §1

For another series, the system named is Proteus mirabilis. Description: In vitro antimicrobial activity, CLSI microbroth dilution (bacteria). Particulars: clinical isolate, read-out: MIC. Type of series: cell-based. The procedure: M27-A3 for yeasts). The compounds were diluted, and stock solutions of 20 mg/mL in DMSO were prepared. Mueller-Hinton Broth (HiMedia) and RPMI-1640 (Sigma) were prepared as recommended for antimicrobial susceptibility testing of bacterial and fungal strains, respectively. Two-fold dilutions were made in the range of 1-512 μg/mL for tested compounds. […] All experiments were performed in duplicates.

For series [2], the system named is Cryptococcus neoformans (H99). The series is described as follows: In vitro antimicrobial activity, CLSI microbroth dilution (yeast). The class given is cell-based. Particulars: for MIC: read-out: MIC. The procedure: The antimicrobial activities of all derivatives against C. neoformans (H99), and clinical isolate of P. mirabilisas urease positive microorganism, were tested as recommended by the Clinical and Laboratory Standards Institute (CLSI) (M07-A9 for bacteria; M27-A3 for yeasts). The compounds were diluted, and stock solutions of 20 mg/mL in DMSO were prepared. Mueller–Hinton Broth (HiMedia) and RPMI-1640 (Sigma) were prepared as recommended for antimicrobial susceptibility testing of bacterial and fungal strains, respectively. Two-fold dilutions were made in the range of 1–512 μg/mL for tested compounds. The microbroth dilution test was accomplished using a 96-well microtiter plate containing growth control (drug free wellls) and sterility control (only broth media). The antimicrobial susceptibility test was accomplished by adding a cell suspension adjusted to the 0.5 McFarland standard (1–2 × 10^8 CFU/mL for bacterial strains; 1–5 × 10^6 cells/mL for yeast) to different concentrations of tested compounds. […] All experiments were performed in duplicates.

For series [3], the target named is urease (Canavalia ensiformis, UniProt P07374). The series is described as follows: Kinetic study of urease inhibition (Lineweaver–Burk). The class given is biochemical, Jack bean. As for the experimental part: The kinetic study for the inhibition of urease by compound 6a was carried out using four different concentrations of inhibitor. Compound 6a was tested at […] concentrations against urease for the kinetic study. The Lineweaver–Burk reciprocal plot was constructed by plotting 1/V against 1/[S] at variable concentrations of the substrate urea (3.12 to 100 mM). The inhibition constant Ki was calculated by the plot of slopes versus the corresponding concentrations of compound 6a.
Sequence of urease (Canavalia ensiformis, UniProt P07374) (P07374 whole entry, looked up): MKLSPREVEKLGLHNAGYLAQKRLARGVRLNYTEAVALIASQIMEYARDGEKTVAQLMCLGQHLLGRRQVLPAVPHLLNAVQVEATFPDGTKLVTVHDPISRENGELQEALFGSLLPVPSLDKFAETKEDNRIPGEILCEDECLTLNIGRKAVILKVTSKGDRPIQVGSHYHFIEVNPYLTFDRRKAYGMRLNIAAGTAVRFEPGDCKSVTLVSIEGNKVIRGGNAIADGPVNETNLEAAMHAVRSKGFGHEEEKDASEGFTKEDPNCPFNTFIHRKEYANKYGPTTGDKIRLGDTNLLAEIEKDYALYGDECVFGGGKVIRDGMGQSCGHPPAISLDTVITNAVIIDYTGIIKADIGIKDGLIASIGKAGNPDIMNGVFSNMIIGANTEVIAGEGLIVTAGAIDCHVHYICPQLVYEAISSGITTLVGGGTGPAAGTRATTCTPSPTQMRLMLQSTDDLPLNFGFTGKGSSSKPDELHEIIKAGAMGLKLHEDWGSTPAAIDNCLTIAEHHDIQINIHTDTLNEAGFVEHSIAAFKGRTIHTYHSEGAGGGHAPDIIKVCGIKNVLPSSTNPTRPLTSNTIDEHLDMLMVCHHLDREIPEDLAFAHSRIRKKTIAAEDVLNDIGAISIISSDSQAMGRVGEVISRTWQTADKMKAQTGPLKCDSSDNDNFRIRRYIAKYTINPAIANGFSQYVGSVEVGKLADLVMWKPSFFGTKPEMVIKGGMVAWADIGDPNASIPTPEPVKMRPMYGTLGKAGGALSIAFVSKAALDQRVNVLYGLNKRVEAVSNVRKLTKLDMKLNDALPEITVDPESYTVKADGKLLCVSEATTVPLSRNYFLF

The next series has as its target Jack bean urease (Canavalia ensiformis, UniProt P07374). Description: Screening of urease inhibitory activities (indophenol method, enzymatic). The class given is biochemical. As for the experimental part:
Urease inhibition effects of the synthesized compounds were determined according to the previously reported procedure[37]–[39]. Briefly, 100 μL of the synthesized compounds at different concentrations was added to 850 μL of urea as substrate and 50 μL urease (3 mg/mL) in phosphate buffer, pH = 7.4). After 30 min, to 100 μL of the incubated solution, 500 μL of solution I (5.0 g phenol and 25.0 mg sodium nitroprusside in 500 mL water) was added, followed by the addition of 500 μL of solution II (2.5 g sodium hydroxide, 4.2 mL sodium hypochlorite, and 5% chlorine in 500 mL water) which was further incubated at 37 °C for 30 min. The absorbance of blue-colored indophenol of each cell is related to the percentage of enzyme inhibition using the following equation at 625 nm. The IC50 values for all synthesized compounds were calculated using GraphPad Prism software (GraphPad Software, Inc., San Diego, CA).

Where [4] appears, read: read-out: urease inhibitory activity IC50 (µg/mL) ± SD, C. neoformans.
[5] abbreviates: C. neoformans, read-out: urease inhibitory activity IC50 (µg/mL) ± SD.

Sequence of Jack bean urease (P07374 whole entry, looked up): as above

Take `Cc1ccc(-n2c(C(O)c3ccccc3)n[nH]c2=S)cc1` (centres unmarked) [A]: the IC50 in the series on urease [1] (urease, read-out: IC50) was 16700 ± 178 nM.

Turning to `COc1ccc(NC(=O)NCc2cn(Cc3ccc(Cl)cc3Cl)nn2)cc1` [B], the IC50 in the series on urease [1] (urease, read-out: IC50) was 22810 ± 50 nM.

Take `Cc1ncc([N+](=O)[O-])n1Cc1cn(Cc2ccc(F)cc2)nn1` [C]: the IC50 in the series on urease [1] (urease, read-out: IC50) was 1980 ± 250 nM.

The compound `c1ccc(CSc2nn3c(-c4ccccc4)nnc3s2)cc1` [Compound 6a, 6-(benzylthio)-3-phenyl-[1,2,4]triazolo[3,4-b][1,3,4]thiadiazole] showed a melting point of 217 to 219 °C. Further, the IC50 in the series with P. mirabilis came out at 78.2 ± 8.5 µg/mL (≈ 241 µM). Further, the IC50 in the series with C. neoformans (H99) (setting [4]) was > 124 µg/mL. Also, in the series on Proteus mirabilis, the MIC was 256 µg/mL (≈ 789 µM). For the same compound, the MIC in series [2] was > 256 µg/mL. In addition, the Ki on urease [3] is 1370 nM. Besides, the type of inhibition entry on urease [3] (Lineweaver–Burk plot) was “competitive”. For the same compound, the IC50 against Jack bean urease was 870 ± 90 nM. The “improvement in the activity vs positive control” value at Jack bean urease (vs thiourea) is on record as “around 27 times”.

In turn, `Clc1cccc(CSc2nn3c(-c4ccccc4)nnc3s2)c1` [Compound 6f, 6-((3-chlorobenzyl)thio)-3-phenyl-[1,2,4]triazolo[3,4-b][1,3,4]thiadiazole] showed a melting point of 216 to 218 °C. For the same compound, the IC50 with P. mirabilis is 73.2 ± 5.5 µg/mL (≈ 204 µM). Further, in the series with C. neoformans (H99) (setting [5]), the IC50 came to 87.5 ± 8.1 µg/mL (≈ 244 µM). Moreover, the MIC in the series with Proteus mirabilis came to 256 µg/mL (≈ 713 µM). Moreover, in series [2], the “MFC/MBC” value was 2 µg/mL (≈ 5.57 µM) and the MIC is 1 µg/mL (≈ 2.79 µM). The compound further had an IC50 at Jack bean urease of 1250 ± 190 nM.

Turning to `Clc1ccc(CSc2nn3c(-c4ccccc4)nnc3s2)cc1` [Compound 6g, 6-((4-chlorobenzyl)thio)-3-phenyl-[1,2,4]triazolo[3,4-b][1,3,4]thiadiazole], the melting point was in the range of 218 to 220 °C. Also, in the series with P. mirabilis, the IC50 turned out to be 75.4 ± 6.1 µg/mL (≈ 210 µM). In addition, the “urease inhibitory activity IC50 (µg/mL) ± SD” value in the series with C. neoformans (H99) (C. neoformans) is reported as 94.3 ± 5.9 µg/mL. The IC50 in the series with C. neoformans (H99) (setting [4]) worked out at 93.3 µg/mL (≈ 260 µM). Further, the minimum inhibitory concentration (MIC) with Proteus mirabilis is 256 µg/mL (≈ 713 µM). For the same compound, in series [2], the “MFC/MBC” value is listed as 4 µg/mL (≈ 11.1 µM) and the MIC was 2 µg/mL (≈ 5.57 µM). On Jack bean urease, the IC50 was 1680 ± 730 nM.

`Clc1ccc(CSc2nn3c(-c4ccccc4)nnc3s2)cc1Cl` [Compound 6h, 6-((3,4-dichlorobenzyl)thio)-3-phenyl-[1,2,4]triazolo[3,4-b][1,3,4]thiadiazole] returned a melting point of 215 to 217 °C. Moreover, the IC50 with P. mirabilis was 74.5 ± 4.7 µg/mL (≈ 189 µM). Besides, the IC50 in the series with C. neoformans (H99) (setting [5]) was found to be 83.7 ± 3.2 µg/mL (≈ 213 µM). Besides, the MIC in the series on Proteus mirabilis was 256 µg/mL (≈ 651 µM). Besides, in series [2], the “MFC/MBC” value is 0.5 µg/mL (≈ 1.27 µM) and the minimum inhibitory concentration (MIC) is 0.5 µg/mL (≈ 1.27 µM). In addition, the IC50 on Jack bean urease was determined as 1410 ± 320 nM.

Compound `Brc1ccccc1CSc1nn2c(-c3ccccc3)nnc2s1` [Compound 6i, 6-((2-bromobenzyl)thio)-3-phenyl-[1,2,4]triazolo[3,4-b][1,3,4]thiadiazole] registered a melting point of 210 to 212 °C. The IC50 with P. mirabilis stood at 109 ± 6.2 µg/mL (≈ 271 µM). Besides, in the series with C. neoformans (H99) (setting [5]), the IC50 turned out to be 112 ± 6.7 µg/mL (≈ 278 µM). Further, in the series on Proteus mirabilis, the MIC amounted to 256 µg/mL (≈ 635 µM). Moreover, the MIC in series [2] is > 256 µg/mL. In addition, the IC50 on Jack bean urease was 1590 ± 140 nM.

On to `Brc1cccc(CSc2nn3c(-c4ccccc4)nnc3s2)c1` [Compound 6j, 6-((3-bromobenzyl)thio)-3-phenyl-[1,2,4]triazolo[3,4-b][1,3,4]thiadiazole], for which the melting point is 225 to 227 °C. In addition, the IC50 in the series on P. mirabilis was 112 ± 6.9 µg/mL (≈ 278 µM). Besides, in the series on C. neoformans (H99) (setting [5]), the IC50 is 111 ± 4.8 µg/mL (≈ 276 µM). Further, in the series on Proteus mirabilis, the minimal inhibitory concentration (MIC) stood at 256 µg/mL (≈ 635 µM). The MIC in series [2] was > 256 µg/mL. The IC50 at Jack bean urease amounted to 1050 ± 340 nM.

With `Cc1cccc(C)c1Nc1nnc(-c2ccc(Cl)cc2)s1` [D], in the series on urease [1] (urease, read-out: IC50), the IC50 was 214700 ± 160 nM.

With `CCNc1nnc(Cc2nc3ccccc3c(=O)n2Cc2ccc(F)cc2)s1` [E], the IC50 in the series with urease [1] (urease) is 1.88 ± 0.17 µg/mL.

Take `O=C(NC1CCCCC1)C(c1cccs1)N(C(=O)CSc1nnc(-c2ccc([N+](=O)[O-])o2)s1)c1ccccc1` (centres unmarked) [F]: the “improvement in the inhibitory potency against urease compared to thiourea” value with urease [1] is recorded as “tenfold”. Also, in the series on urease [1] (urease), the mode of inhibition result is “non-competitive”.
